Measurements: patent publication US20260315446A1, “ANTIFUNGAL COMPOUNDS AND USES THEREOF” (priority 2023, published 2026)
Values after ≈ are worked out from the molar mass of the structure shown. Where two headings read alike, the source gives them in different places.

Legend:
[1] = tested on: IL-2 expression in primary murine CD4+ T cells; assay: In vitro immunosuppressive activity, IL-2 expression (Example 4); assay type: cell-based, mouse; details: Mus musculus, CD4+ T
Method: Spleen and lymph nodes were collected from C57BL/6 mice and homogenized through a 40 μm filter. Pan-CD4^+ T cells were enriched using MagniSort Mouse CD4 T cell Kit (eBioscience) according to the manufacturer's protocol. Thereafter, CD4+CD25−CD44lo CD62Lhi naïve T cells were FACS-sorted. The naïve CD4+ T cells were grown in Iscove's Modified Dulbecco's Medium (IMDM) supplemented with glutamine, penicillin, streptomycin, gentamicin, 2-mercaptoethanol, and 10% FBS. Cells were then cultured on anti-hamster IgG coated plates in the presence of hamster anti-CD3 epsilon and anti-CD28 antibodies (BD Biosciences), neutralizing anti-IL-4 antibody (eBioscience), recombinant IL-12 (10 ng/mL), and recombinant IL-2 (50 U/mL) for 72 h. During this period, cells were grown in the presence of 2× serially diluted FK506, FK520, or analog suspended in DMSO for 72 h. During the last 4 h of culture, phorbol 12-myristate 13-acetate (PMA; Sigma), ionomycin (Sigma), and GolgiStop (BD Biosciences) were added to the culture to facilitate detection of intracellular cytokines via flow cytometry.
Live cells were stained with FITC-conjugated anti-CD4 antibody (eBioscience) and Fixable Viability Dye eFluor 506 (eBioscience) on ice, followed by fixation and permeabilization using the Foxp3 Transcription Factor Staining Kit (eBioscience). Intracellular staining was performed at room temperature using PE-conjugated anti-IL-2 antibody (eBioscience), followed by analysis with a BD LSRFortessa X-20 flow cytometer.

C. neoformans = assay: MIC assay (Example 4); assay type: cell-based, Cryptococcus neoformans; details: 37° C.; for MIC: Cryptococcus neoformans, read-out: C. neoformans MIC
Method: Both JH-FK-10 and JH-FK-11 maintained in vitro antifungal activity against C. neoformans with MICs of 0.8 and 1.6 μg/mL, respectively (Table 11).
In vitro antifungal activity of FK506, FK520, and analogs was assessed in RPMI 1640 (Sigma-Aldrich) for all strains tested. Minimum inhibitory concentrations (MIC) for each drug were measured using modified Clinical and Laboratory Standards Institute (CLSI) M38-A2 and M27-A3 standard in vitro antifungal susceptibility protocols. Broth microdilution assays for MIC assessment were performed as previously described. All antifungal assays with C. neoformans were performed at 37° C.

[2] = tested on: IL-2 expression in primary mouse CD4+ T cells (mammalian calcineurin); assay: In vitro immunosuppressive activity, IL-2 expression (Example 3); assay type: cell-based; details: 72 h
Method: Modifications at the C-22 position reduce inhibition of mammalian calcineurin signaling Mammalian calcineurin inhibition was then assessed and found to be reduced for these FK520 analogs. The inhibition of mammalian calcineurin was assessed by measuring the reduction of IL-2 expression from primary mouse CD4^+ T cells cultured in the presence of FK506, FK520, or an analog. Calcineurin activity is required for T cell activation and cytokine production, and IL-2 production serves as an effective measure of mammalian calcineurin activity. After culturing mouse CD4′ T cells for 72 h, IL-2 expression was analyzed by flow cytometry to evaluate the immunosuppressive activity of the analogs. […] However, compound concentrations that permit high IL-2 expression are less likely to result in cell death.
Spleen and lymph nodes from C57BL/6 mice were collected and homogenized through a 40-μm filter. Pan-CD4^+ T cells were enriched using the MagniSort Mouse CD4 T Cell Enrichment Kit (Invitrogen). Thereafter, CD4^+CD25^−CD62L^hiCD44^lo naïve CD4^+ T cells were FACS-sorted using a MoFlo Astrios cell sorter (Beckman Coulter). Naïve CD4^+ T cells were cultured in Iscove's Modified Dulbecco's Medium supplemented with 10% fetal bovine serum (FBS), penicillin (10 U/mL), streptomycin (10 μg/mL), glutamine (2 mM), gentamicin (50 μg/mL), and β-mercaptoethanol (55 μM). Cells were cultured for 72 h on anti-hamster IgG-coated plates with hamster anti-CD3s antibodies, hamster anti-CD28 antibodies, neutralizing anti-IL-4 antibodies, recombinant IL-12 (10 ng/mL), and recombinant IL-2 (50 U/mL). During this culture, cells were incubated with serially diluted drugs suspended in DMSO.

Aspergillus fumigatus = assay: Broth microdilution MIC/MEC (Example 1); assay type: cell-based; details: for minimal effective concentration: Aspergillus fumigatus, strain Af293, read-out: MEC against Aspergillus fumigatus (Af293)
Method: MICs/minimum effective concentrations (MECs) were determined for each of the novel analogs against the three major human fungal pathogens, A. fumigatus, C. neoformans, and C. albicans. […] Thus, analogs of FK506 and FK520 can tolerate up to 100-fold reduction in antifungal activity and still be considered for in vivo testing. For C. neoformans, MICs were the most uniform and ranged from 0.2 to 2 μg/mL, which is between 4- and 40-fold reduced for antifungal activity.
To assess the antifungal activity against other human fungal pathogens, JH-FK-05 was selected to test against a panel of pathogenic molds and drug-resistant A. fumigatus strains (Table 4). JH-FK-05 registered MECs as low as 1 μg/mL for some of these highly recalcitrant species, such as Mucor circinelloides, Rhizopus oryzae, and pan azole-resistant A. fumigatus (strain F14946).
In vitro antifungal activities of FK506, FK520, and analogs were assessed in RPMI 1640 (Sigma-Aldrich) for all strains tested. MICs/minimum effective concentrations (MECs) for each drug were measured using modified Clinical and Laboratory Standards Institute (CLSI) M38-A2 and M27-A3 standard in vitro antifungal susceptibility protocols. Broth microdilution assays for MIC/MEC assessment were performed as described previously (see, Juvvadi P R, et al., 2019, Nat Commun 10:4275). All antifungal assays with C. neoformans were performed at 37° C. Antifungal susceptibility testing for C. albicans was performed in the presence of a uniform 1 μg/mL concentration of fluconazole to sensitize the organism to calcineurin inhibition.

| SMILES | IC50 ([1]; Table 12) [nM] | MIC (C. neoformans; Table 13) [µg/mL] | IC50 [2] [nM] | minimal effective concentration (Aspergillus fumigatus) [µg/mL] | further results |
| --- | --- | --- | --- | --- | --- |
| C=CCC1C=C(C)CC(C)CC(OC)C2OC(O)(C(=O)C(=O)N3CCCCC3C(=O)OC(C(C)=CC3CCC(O)C(OC)C3)C(C)C(O)CC1=O)C(C)CC2OC (centres unmarked) [FK506, reference compound] | 0.11 | 0.05 (≈ 0.0622 µM) | 0.09 | 0.016 | MIC (C. neoformans; Table 11): 0.05 µg/mL (≈ 0.0622 µM); MIC (C. neoformans; Table 12): 0.05 µg/mL (≈ 0.0622 µM) |
| CC[C@@H]1/C=C(\C)C[C@H](C)C[C@H](OC)[C@H]2O[C@@](O)(C(=O)C(=O)N3CCCC[C@H]3C(=O)O[C@H](/C(C)=C/[C@@H]3CC[C@@H](O)[C@H](OC)C3)[C@H](C)[C@@H](O)C/C1=N/NC(C)=O)[C@H](C)C[C@@H]2OC [JH-FK-05] |  | 1 (≈ 1.18 µM) |  | 2 | IC50 ([1]; Table 13): 20 nM; MIC/MEC (Aspergillus fumigatus; echinocandin-resistant strain EMFR-S678P): 2 µg/mL (≈ 2.36 µM) |
| CC[C@@H]1/C=C(\C)C[C@H](C)C[C@H](OC)[C@H]2O[C@@](O)(C(=O)C(=O)N3CCCC[C@H]3C(=O)O[C@H](/C(C)=C/[C@@H]3CC[C@@H](O)[C@H](OC)C3)[C@H](C)[C@@H](O)CC1=O)[C@H](C)C[C@@H]2OC [FK520, reference compound] | 0.48 |  | 0.3 |  | C. neoformans MIC (C. neoformans; Table 11): 0.05 µg/mL; C. neoformans MIC (C. neoformans; Table 12): 0.05 µg/mL; C. neoformans MIC (C. neoformans; Table 13): 0.05 µg/mL |
| C=CC[C@@H]1/C=C(\C)C[C@H](C)C[C@H](OC)[C@H]2O[C@@](O)(C(=O)C(=O)N3CCCC[C@H]3C(=O)O[C@H](/C(C)=C/[C@@H]3CC[C@@H](O)[C@H](OC)C3)[C@H](C)[C@@H](O)C/C1=N/NC(=O)CC)[C@H](C)C[C@@H]2OC [JH-FK-02] |  |  |  | 2 |  |
| CC[C@@H]1/C=C(\C)C[C@H](C)C[C@H](OC)[C@H]2O[C@@](O)(C(=O)C(=O)N3CCCC[C@H]3C(=O)O[C@H](/C(C)=C/C3CC[C@@H](O)[C@H](OC)C3)[C@H](C)[C@@H](O)C/C1=N/NC(=O)OC)[C@H](C)C[C@@H]2OC (some centres unmarked) [JH-FK-08] |  |  | 42.6 |  |  |
